Source: US4931292A, “Method of preparing iron(III) phosphate compounds for iron fortification of food products” (EKA Nobel AB, priority 1986, dated 1990)
“Also recorded” adds a separate entry of the source.

What was measured:
[1] = Examination of bioavailability in humans: absorption of 55Fe-labelled iron compound and 59Fe-labelled native iron from iron-fortified buns; type: in vivo; conditions: for Absorption, Fortification: fortification iron (55Fe)
Method: The examination was carried out by the technique described in the above-mentioned paper by Hallberg et al.
The iron compound to be tested is labelled with radioactive iron, ^55 Fe, in the synthesis of the compound used. This iron is used to fortify flour from which buns are made by standard procedures, for example as follows: ______________________________________ Ingredients Parts by weight ______________________________________ wheat-flour 100 sugar 3.5 salt 1.0 yeast 6.5 water 83 iron source 6.5 ^- 10^-3 ______________________________________
The iron occurring naturally (native iron) in wheat-flour is labelled by adding tracer amounts of ^59 Fe-labelled iron(III)chloride. The buns are thus made of flour which is labelled with two different radioactive isotopes.
The ingredients are mixed, and the dough is allowed to rise for 30 minutes. After the usual kneading, the dough is placed in small aluminium baking tins where the dough pieces are allowed to rise for another 30 minutes. The dough pieces in the baking tins are subsequently baked at a temperature of 250° C. for 10 minutes
These double-labelled buns are served a group of test subjects, for breakfast with coffee, margarine and marmalade two successive mornings after a night's fast. No food or beverage is allowed for three hours after breakfast. Two weeks after the last breakfast, blood tests are made to measure the occurrence of ^55 Fe and ^59 Fe in blood. Furthermore,the totally absorbed amount of ^59 Fe in the body is measured by a so-called total-body counter Via the ratio of ^59 Fe to ^55 Fe in blood samples, also the totally absorbed amount of ^55 Fe can be determined.
Subsequently, a reference solution is administered, consisting of ^59 Fe-labelled iron(II)sulphate and ascorbic acid at two successive breakfasts after a night's fast. No food or beverage is allowed for three hours thereafter. Another two weeks later, a new total-body measurement is made to measure the absorption of the reference dose. The reference solution is administered to make it possible to carry out corrections with regard to differences in the iron absorbing capability of the different test subjects.
The amount of ^59 Fe which is added as ^59 FeCl3 to the wheat-flour, isotope-labels by so-called isotopic exchange all biologically available nonheme iron (=non-blood iron) in the meals analysed, i.e. on the one hand the native iron and, on the other hand, the part of the fortification iron which is dissolved. However, that part of the fortification iron which is not dissolved in the gastrointestinal tract, is not labelled. […]

[2] = humans; literature or background statement; cited from earlier work
[3] = Solubility in artificial gastric environment (0.1M HCl, pH 1, 37° C.); type: physicochemical; conditions: for % Solubility 10 min / % Solubility 30 min / % Solubility 60 min: 0.1M HCl, pH=1, 37° C.; for solubility at pH 1 / in 0.1M HCl / gastric environment (in words): pH 1 (0.1M HCl)
Method: Here, solubility tests for some commercially used iron(III)phosphates have also been included.
The compound examined in Example 1 was also measured as a reference substance (compound A)

[4] = 40 g buns, 0.2 mg native iron, 2.2 mg fortification iron, ten persons

% Solubility 10 min [3] [%] | % Solubility 30 min [3] [%] | % Solubility 60 min [3] [%] | Compound | absorbability / bioavailability [2] | solubility at pH 1 / in 0.1M HCl / gastric environment (in words) [3] | further results
86 | 100 | 100 | Fe3 H8 (NH4)(PO4)6 .multidot.6H2 O [Compound A] |  |  | Relative bioavailability 55Fe/59Fe [1, 4]: 0.63 ± 0.04; Absorption, Fortification [1, 4]: 3.3%; bioavailability (in words) ([1]; humans): far better bioavailability than both the commercial fortifying agent which is to date most frequently used, i.e. iron powder, and the known commercial fortifying agent which, in structural respect, is its closest relation, i.e. common iron(III)phosphate
5 | 39 | 72 | Fe3 H8 K(PO4)6 .multidot.6H2 O [Compound E] |  | low initial solubility but reached, after some time, relatively good values | 
70 | 93 | 100 | Fe5 H8 Na4 (PO4)9 .multidot.10H2 O [Compound C] |  | approximately the same good solubility properties as the ammonium-containing compound A | 
61 | 92 | 100 | FeH2 Na(PO4)2 .multidot.0.5H2 O [Compound D] |  | approximately the same good solubility properties as the ammonium-containing compound A | 
82 | 97 | 100 | FeH5 Na(PO4)3 .multidot.H2 O [Compound B] |  | approximately the same good solubility properties as the ammonium-containing compound A | 

Continued, compound first:

Compound | % Solubility 10 min [3] [%] | % Solubility 30 min [3] [%] | % Solubility 60 min [3] [%] | absorbability / bioavailability [2] | solubility at pH 1 / in 0.1M HCl / gastric environment (in words) [3] | further results
O=P([O-])([O-])[O-].[Fe+3] [Common iron(III)phosphate, iron(III)phosphate, reference compound] |  |  |  |  |  | Absorption, Fortification ([1]; 60 g buns, 0.5 mg native iron, 3 mg fortification iron, ten persons): 1.1%
O=S(=O)([O-])[O-].[Fe+2] [iron(II)sulphate] |  |  |  | highest absorbability; also recorded: high bioavailability in the human body |  | 
O=P([O-])([O-])[O-].[Fe+3] [iron(III)orthophosphate] |  |  |  | questionable in respect to the bioavailability of iron |  | 
O=P([O-])([O-])OP(=O)([O-])O.[Fe+2].[Na+] [sodium iron pyrophosphate] |  |  |  | questionable in respect to the bioavailability of iron |  | 
